In patent US9005575B2, “Arg-Gly-Asp-conjugated alpha-melanocyte stimulating hormone hybrid peptide for use in diagnosing and treating melanoma, including metastatic melanoma and methods related to same” (STC.UNM, priority 2009, dated 2015):
Positions of bridges follow the written chain, without caps; N, C: chain ends. Non-standard residues stand in square brackets, D forms with d. Residues, ends and D or L forms follow the SMILES beside them.

How the values were obtained:
[1] = tested on: B16/F1 murine melanoma cells; test: Specificity of cellular uptake (peptide blockade); type: cell-based; conditions: rather than αvβ3 integrin-mediated
Experimental: The specificity of cell binding was determined by incubating ^99mTc-RGD-Lys-(Arg^11)CCMSH with or without non-radioactive peptides. After being washed once with binding media, B16/F1 cells in 24-well cell culture plates were incubated with approximately 200,000 cpm of HPLC purified ^99mTc-RGD-Lys-(Arg^11)CCMSH at 25° C. for 120 min (n=4) in the presence of 0.1 μM of RGD-Lys-(Arg^11)CCMSH, NDP-MSH, (Arg^11)CCMSH or RGD in 0.5 ml of binding media, respectively. The reaction media were aspirated after the incubation. The cells were rinsed twice with 0.5 ml of ice-cold pH 7.4, 0.2% BSA/0.01 M PBS and lysed in 0.5 ml of 1 N NaOH for 5 min. The activities associated with cells were measured in a gamma counter. Statistical analysis was performed using the Student's t-test for unpaired data.
The specificity of cellular uptake was determined by incubating ^99mTc-RGD-Arg-(Arg^11)CCMSH with or without non-radioactive peptides. After being washed once with binding medium, B16/F1 cells in 24-well cell culture plates were incubated with approximately 200,000 cpm of HPLC purified ^99mTc-RGD-Arg-(Arg^11)CCMSH at 25° C. for 120 min (n=3) in the presence of 0.1 μM of RGD-Arg-(Arg^11)CCMSH, (Arg^11)CCMSH, RGD or no peptide blockade in 0.5 mL of binding medium, respectively. The reaction medium was aspirated after the incubation. The cells were rinsed twice with 0.5 mL of ice-cold pH 7.4, 0.2% BSA/0.01 M PBS and lysed in 0.5 mL of 1 N NaOH for 5 min. The activities associated with cells were measured in a gamma counter.

[2] = Stability in mouse serum monitored by RP-HPLC; type: in vitro ADME; conditions: 37° C., 24 h
Experimental: RGD-Lys-(Arg^11)CCMSH was radiolabeled with ^99mTc via a glucoheptonate transchelation reaction using methods described previously (7). Briefly, 100 μl of 2 mg/ml SnCl2 in 0.2 M glucoheptonate aqueous solution and 200 μl of fresh ^99mTcO4^− solution (1-4 mCi) were added into a reaction vial and incubated at room temperature (25° C.) for […] to form ^99mTc-glucoheptonate. Then, 10 μl of 1 mg/ml RGD-Lys-(Arg^11)CCMSH aqueous solution was added into the reaction vial and the pH of the reaction mixture was adjusted to 8.5 with 0.1 M NaOH. The reaction mixture was incubated at 75° C. for 40 min. […] The stability of ^99mTc-RGD-Lys-(Arg^11)CCMSH was determined by incubation in mouse serum at 37° C. according to the published procedure (27) for various time periods, and monitored for degradation by RP-HPLC.
RGD-Arg-(Arg^11)CCMSH was radiolabeled with ^99mTc via a glucoheptonate transchelation reaction using methods described previously (17). […] The stability of ^99m Tc-RGD-Arg-(Arg^11)CCMSH was determined by incubation in mouse serum at 37° C. according to the published procedure (17) for various time periods, and monitored for degradation by RP-HPLC.

[3] = Effect of L-lysine co-injection on renal and tumor uptakes; type: in vivo, C57 mice; conditions: 15 mg of L-lysine, 2 h post-injection; for tissue uptake at 2 h: C57, mouse, kidneys, with L-lysine, 15 mg co-injected, total radioactivity
Experimental: The effects of L-lysine co-injection on the renal uptakes of ^99mTc-RGD-Arg-(Arg^11)CCMSH and ^99mTc-RGD-Lys-(Arg^11)CCMSH was examined in B16/F1 melanoma-bearing C57 as well. Two groups of 5 mice were injected with an aqueous mixture of 0.037 MBq of ^99mTc-RGD-Arg-(Arg^11)CCMSH and 15 mg of L-lysine or an aqueous mixture of 0.037 MBq of ^99mTc-RGD-Lys-(Arg^11)CCMSH and 15 mg of L-lysine, respectively. The mice were sacrificed at 2 h post-injection, and tumors and kidneys were harvested, weighed and counted.

[4] = Urinary metabolites by HPLC; type: in vivo, C57 mouse; conditions: urine, 2 h post-injection, RP-HPLC
Experimental: (§1) Urinary metabolites of ^99mTc-RGD-Lys-(Arg^11)CCMSH were determined by injecting 3.7 MBq of ^9″Tc-RGD-Lys-(Arg^11)CCMSH into a B16/F1 melanoma-bearing C57 mouse through the tail vein. At 2 h after dose administration, the mouse was euthanized and the urine was collected. The radioactive metabolites in the urine were analyzed by injecting aliquots of urine into HPLC. A 20-minute gradient of 16-26% acetonitrile/20 mM HCl was used for the urine analysis.
as §1, with “^99mTc-RGD-Arg-(Arg^11)CCMSH” for “^99mTc-RGD-Lys-(Arg^11)CCMSH”, “^99mTc-RGD-Arg-(Arg^11)CCMSH” for “^9″Tc-RGD-Lys-(Arg^11)CCMSH”

Row | Stability in mouse serum [2] | Effect of L-lysine co-injection on the tumor uptake [3] | Reduction of renal uptake by L-lysine co-injection [3] [%] | tissue uptake at 2 h [3] [%ID/g] | Urinary radioactivity: remained intact [4] | Urinary radioactivity: transformed to more lipophilic metabolite(s) [4] [%] | Compound | Mechanism of cellular uptake [1]
1 | stable | without affecting | 27.7 | 31.1 ± 6.42 | Approximately 73% | 27 | CC(C)[C@H](NC(=O)[C@@H]1CCCN1C(=O)[C@H](CCCNC(=N)N)NC(=O)[C@H](CS)NC(=O)[C@H](Cc1c[nH]c2ccccc12)NC(=O)[C@H](CCCNC(=N)N)NC(=O)[C@@H](Cc1ccccc1)NC(=O)[C@H](Cc1c[nH]cn1)NC(=O)[C@H](CCC(=O)O)NC(=O)[C@H](CS)NC(=O)[C@H](CS)NC(=O)[C@H](CCCNC(=N)N)NC(=O)[C@@H]1CC(=O)N[C@@H](CCCNC(=N)N)C(=O)NCC(=O)N[C@@H](CC(=O)O)C(=O)N[C@H](Cc2ccc(O)cc2)C(=O)N1)C(N)=O [^99mTc-RGD-Arg-(Arg^11)CCMSH, metal not drawn] (RGD[dY]DRCCEH[dF]RWCRPV-NH2; lactam N-5) | MC1 receptor-mediated
2 | stable | without affecting | 52.1 | 32.2 ± 5.98 | Approximately 68% | 32 | CC(C)[C@H](NC(=O)[C@@H]1CCCN1C(=O)[C@H](CCCNC(=N)N)NC(=O)[C@H](CS)NC(=O)[C@H](Cc1c[nH]c2ccccc12)NC(=O)[C@H](CCCNC(=N)N)NC(=O)[C@@H](Cc1ccccc1)NC(=O)[C@H](Cc1c[nH]cn1)NC(=O)[C@H](CCC(=O)O)NC(=O)[C@H](CS)NC(=O)[C@H](CS)NC(=O)[C@H](CCCCN)NC(=O)[C@@H]1CC(=O)N[C@@H](CCCNC(=N)N)C(=O)NCC(=O)N[C@@H](CC(=O)O)C(=O)N[C@H](Cc2ccc(O)cc2)C(=O)N1)C(N)=O [^99mTc-RGD-Lys-(Arg^11)CCMSH, metal not drawn] (RGD[dY]DKCCEH[dF]RWCRPV-NH2; lactam N-5) | MC1 receptor-mediated
